According to patent US7807656B2, “Pharmaceutical applications of hyaluronic acid preparations” (priority 2001, dated 2010):

Tested on: adipose tissue
Test: addition of hyaluronic acid to liposuction infiltration solution
Format: in vivo
Conditions: added to infiltration solution
Procedure: Hyaluronic acid can also be added to infiltration solutions which are injected into the tissue prior to a liposuction. These infiltration solutions are usually isotonic or hypotonic salt solutions which can contain additives, for example blood vessel-contracting and/or pain-reducing additives, such as noradrenaline, adrenaline, lidocaine, prilocalne, bicarbonate, corticosteroids, etc. Hyaluronic acid (crosslinked and/or uncrosslinked hyaluronic acid) is advantageously added to these solutions at concentrations of from 0.001 to 1.0% (wt/vol), preferably of from 0.01 to 0.5% (wt/vol), e.g. of about 0.025% (wt/vol). […] Furthermore, structures in the adipose tissue which are worth conserving, such as blood vessels, nerves or connective tissue bands, are spared. Adding the hyaluronic acid also makes the process of liposuction markedly more atraumatic when compared with the conventional procedure. […] This also leads to a reduction in the tissue trauma. All in all, adding hyaluronic acid to the infiltration solution protects the remaining adipose tissue in the body and results in the adipose tissue aspirate being withdrawn in a gentler manner.
This is of importance insofar as adipose tissue aspirates can be used as endogenous transplants. […]

Substance: hyaluronic acid
- survival of fat cells in the aspirate: improves the survival of fat cells
- growth of transferred tissue at the recipient site (aspirate transplanted): grow more strongly
